# Measured values reported in patent US20030064413A1, “Compositions and methods useful in avidity therapy” (priority 2000, published 2003).
# “Also recorded” adds a separate entry of the source. Peptide text beside a SMILES is read from it.
# Key:
# [1] = system: CD8+ T cells propagated from islets of acutely diabetic NOD mice; assay: Killing of peptide-pulsed RMA-SKd cells by islet-derived CD8+ T cell lines and clones; format: cell-based
# Source text: To confirm that the islet associated CD8^+ T cells of most NOD mice contain clones capable of recognizing the NRP/Kd complex, we generated 31 CD8^+ CTL clones from islets of 9 NOD mice, and tested the clones' ability to kill NRP- or TUM-pulsed RMA-SKd cells. Of the 31 clones tested, 14 (45%) were cytotoxic against NRP-, but not TUM-pulsed, RMA-SKd targets (FIGS. 7B and C).
# [2] = system: naïve or activated 8.3-CD8+ T cells; assay: Functional testing of NRP mimics (proliferation, cytokine secretion, cytotoxicity, antagonism); format: cell-based, mouse (8.3-TCRαβ-transgenic NOD)
# Source text: To test the validity of this hypothesis, we produced mimics of NRP capable of engaging the 8.3-TCR (a TCR that is representative of the TCRs used by NRP-reactive CD8^+ T cells in the NOD mouse) with very low or very high affinity (when compared to NRP and NRP-A7). This was done by generating numerous single amino acid mutants of NRP (NRP mimics) and by testing the ability of each mutant to elicit proliferation, cytokine secretion and cytotoxicity of naïve or activated 8.3-CD8^+ T cells. Some of the NRP mimics that were unable to elicit the activation of naïve 8.3-CD8^+ T cells were tested for antagonism. Antagonist mimics are unable to elicit the functional activity of T cells but antagonized the agonistic activity of functional mimics (i.e. NRP and NRP-A7). […] Of these, NRP-A4 was the most powerful and was chosen for further experimentation. […] FIG. 15 compares the agonistic properties of all these peptides on naïve 8.3-CD8^+ T cells.
# To test the validity of this hypothesis, we produced mimics of NRP capable of engaging the 8.3-TCR (a TCR that is representative of the TCRs used by NRP-reactive CD8^+ T cells in the NOD mouse) with very low or very high affinity (when compared to NRP and NRP-A7). This was done by generating numerous single amino acid mutants of NRP (NRP mimics) and by testing the ability of each mutant to elicit proliferation, cytokine secretion and cytotoxicity of naïve or activated 8.3-CD8^+ T cells. Some of the NRP mimics that were unable to elicit the activation of naïve 8.3-CD8^+ T cells were tested for antagonism. Antagonist mimics are unable to elicit the functional activity of T cells but antagonized the agonistic activity of functional mimics (i.e. NRP and NRP-A7). […] Peptide-induced responses are color-coded from low, medium, […], high and very high (blue, yellow, green and red, respectively). The data are representative of 3 different experiments.
# Of these, NRP-A4 was the most powerful and was chosen for further experimentation. […] FIG. 15 compares the agonistic properties of all these peptides on naïve 8.3-CD8^+ T cells.
# [3] = system: 8.3-TCR on 8.3-CD8+ T cells; assay: Peptide/MHC tetramer binding to 8.3-CD8+ T cells; design: species or system mouse (8.3-TCRαβ-transgenic NOD)
# Source text: (§1) To confirm that these peptides were recognized with different avidity by 8.3-CD8^+ T cells, we produced and tested peptide/MHC tetramers as previously described (39). A tetramer is preferably used in avidity determinations because tetramers bind more strongly than the corresponding monomers, while maintaining the same relative avidities when a plurality of ligands are compared. […] These peptides were recognized with different avidity not only by 8.3-CD8^+ T cells, but also by the polyclonal NRP-reactive CD8^+ T cells that can be propagated from the pancreatic islets of 20 wk-old NOD mice.
# (§2) In order to follow the accumulation of antigen-specific CD8^+ T cells in islets of pre-diabetic NOD mice, we generated H-2Kd tetramers containing the peptides NRP, NRP-A7, TUM or INS [LYLVCGERG; an insulin-derived peptide recognized by islet-associated T cells from young NOD mice (38)]. The NRP and NRP-A7 tetramers stained virtually all the splenic CD8^+ T cells from 8.3-TCRαβ-transgenic NOD mice, but <1% of the splenic CD8^+ T cells from NOD mice. The INS tetramer stained the INS-reactive CTL clone G9C8 (38), but neither this tetramer nor the negative control tetramer (TUM) stained the splenic CD8^+ T cells from NOD or 8.3-TCRαβ-transgenic NOD mice (data not shown).
# To confirm that these peptides were recognized with different avidity by 8.3-CD8^+ T cells, we produced and tested peptide/MHC tetramers. […] These peptides were recognized with different avidity not only by 8.3-CD8^+ T cells, but also by the polyclonal NRP-reactive CD8^+ T cells that can be propagated from the pancreatic islets of 20 wk-old NOD mice.
# [4] = system: islet-derived CD8+ T cells; assay: Peptide/H-2Kd tetramer staining of islet-derived CD8+ T cells; format: binding, NOD mice
# Source text: as §1
# Since tetramer-reactive cells represent a very small fraction of all the islet-associated T cells, we analyzed the presence of tetramer-reactive clonotypes within the cell population that has undergone antigen-driven activation and thus is likely to contain autoreactive specificities. Islets from non-diabetic 5, 9, 15 and 20 wk-old NOD mice were cultured in the presence of rIL-2 for 6-7 d, to selectively expand IL-2R-positive T cells [˜10% of all the islet-associated CD8^+ T cells (30)]. There were age-dependent increases in the number of T cells recovered from NOD islets and in the % of CD8^+ T cells contained within lines. […]
# NOD mice = assay: Development of spontaneous autoimmune diabetes in peptide-treated NOD female mice; format: in vivo
# Source text: To test whether the hypothesis could in fact predict the different outcomes outlined in Table I, we treated groups of NOD female mice with repeated injections of NRP-A4, NRP-I4 and NRP-V7, and followed the mice for development of spontaneous autoimmune diabetes. T cells were also harvested from the treated mice and tested with various ligand/MHC tetramers to determine the impact of the treatment on T cell populations. […] Since these cells have higher diabetogenic potential (see above), it is likely that their accumulation into islets is the single mechanism that accounts for the accelerated onset of diabetes seen in NRP-I4-treated mice. […]
# The hypothesis put forth above predicted that, in vivo, each of these peptides would trigger T cells differently depending on the T cells' avidity for NRP. This is summarized in Table I. To test whether the hypothesis could in fact predict the different outcomes outlined in Table I, we treated groups of NOD female mice with repeated injections of NRP-A4, NRP-I4 and NRP-V7, and followed the mice for development of spontaneous autoimmune diabetes. […] Since these cells have higher diabetogenic potential (see above), it is likely that their accumulation into islets is the single mechanism that accounts for the accelerated onset of diabetes seen in NRP-I4-treated mice.
# To test the effect of dosage of the peptide ligands on T cell clonal delection or expansion, we treated groups of NOD female mice with repeated injections of “low” or “high” doses of TUM (negative control), NRP, NRP-A7, NRP-A4, NRP-I4 and NRP-V7. Low concentrations of peptide were prepared by resuspending 100 mg of dry peptide in PBS in the absence of acids. The peptides in these preparations, which were also used in previous Examples, are aggregated, and the effective concentrations were low. Soluble, high concentrations of peptide were prepared by diluting 100 mg of soluble peptide (solubilized in the presence of acid) in PBS. The mice were followed for development of spontaneous autoimmune diabetes.
# [5] = system: NRP-A7-reactive CD8+ T cells; assay: Islet-associated CD8+ T cells of peptide-treated NOD mice (tetramer staining, binding kinetics, cytotoxicity); format: in vivo
# Source text: To test whether the hypothesis could in fact predict the different outcomes outlined in Table I, we treated groups of NOD female mice with repeated injections of NRP-A4, NRP-I4 and NRP-V7, and followed the mice for development of spontaneous autoimmune diabetes. T cells were also harvested from the treated mice and tested with various ligand/MHC tetramers to determine the impact of the treatment on T cell populations. […] Since these cells have higher diabetogenic potential (see above), it is likely that their accumulation into islets is the single mechanism that accounts for the accelerated onset of diabetes seen in NRP-I4-treated mice.
# To ascertain whether the NRP-A7 treatment had induced the deletion of NRP-A7-reactive CD8^+ T cells, we examined islets of peptide-treated, non-diabetic 32 wk-old mice for the presence of this T cell population. […] To determine whether this resulted from the absence of clonotypes bearing high affinity TCRs for NRP-A7, we compared the kinetics of NRP-A7 tetramer binding to CD8^+ T cells derived from peptide-treated mice. […] Since treatment with NRP-A7 also halted the progression from benign to pernicious islet inflammation, we concluded that development of IDDM in NOD mice requires the avidity maturation of the NRP-A7-reactive CD8^+ T cell population.
# The effect of the peptides on T cell populations was also determined.
# 8.3-CD8+ T cells = assay: Repeated peptide administration to 8.3-TCRαβ-transgenic NOD mice; format: in vivo; settings: repeated administration via i.p. and f.p. routes; unpublished data
# [6] = system: INS-reactive CTL clone G9C8; assay: Tetramer staining of CTL clone G9C8; format: binding; settings: H-2Kd tetramer
# Source text: as §2
compound,measurement,setting,value
"CC(C)C[C@H](NC(=O)[C@H](Cc1ccccc1)NC(=O)[C@H](Cc1c[nH]c2ccccc12)NC(=O)[C@H](CC(N)=O)NC(=O)[C@H](C)NC(=O)[C@H](CCCCN)NC(=O)[C@H](CC(N)=O)NC(=O)[C@H](Cc1ccc(O)cc1)NC(=O)[C@@H](N)CCCCN)C(=O)O [NRP, KYNKANWFL] (H-KYNKANWFL-OH; N-terminus and C-terminus assumed)",islet-derived CD8+ CTL clones cytotoxic against peptide-pulsed RMA-SKd targets,[1]; 14 of 31 clones from 9 NOD mice,45%
KYNKANAFL [NRP-A7],functional class of the peptide on 8.3-CD8+ T cells,[2],super-agonist
same,Function,[2]; Table I,superagonist
same,Function (of Function/Avidity),[2]; Table II,superagonist
same,"agonistic/antagonistic activity, comparative statement",[2]; naive 8.3-CD8+ T cells,superior agonistic properties
same,avidity class of the peptide,[3],high avidity
same,Avidity (of Function/Avidity),[3]; Table II,high
same,avidity of tetramer binding to 8.3-CD8+ T cells,"[3]; peptide/MHC tetramer, proportional to fluorescence intensity of stained T cells",increased avidity
same,splenic CD8+ T cells stained by tetramer,[3]; splenic CD8+ T cells from 8.3-TCRαβ-transgenic NOD mice,virtually all
same,size of the tetramer-reactive CD8+ T cell population in islets,"[4]; by 15 wk, islets cultured with rIL-2 6-7 d",~18%
same,"number of islet-derived CD8+ T cells bound by tetramer, comparative",[4]; islets of 20 wk-old NOD mice,more cells bound the NRP-A7 than the NRP tetramers
same,islet-associated CD8+ T cell clones recognizing the peptide,[1]; reference 37,45%
same,islet-associated CD8+ T cell lines recognizing the peptide,[1]; reference 37,87%
same,Action (high dose),"NOD mice; Table II, effect on diabetes, high dose, repeated injections",No effect
same,Action (low dose),"NOD mice; Table II, effect on diabetes, low dose, repeated injections",protective
same,effect on diabetes at high dose/concentration,"NOD mice; high concentration (acid-solubilized peptide in PBS), repeated injections",no effect; also recorded: rather ineffective; also recorded: did not efficiently protect the mice from diabetes
same,effect on diabetes at low dose/concentration,"NOD mice; low concentration (aggregated peptide in PBS), repeated injections",anti-diabetogenic; also recorded: significant protective effect; also recorded: diabetes resistance
same,development of IDDM/diabetes in treated NOD mice,"NOD mice; repeated injections (100 μg in PBS i.p. in Example 6), low dosage according to b141",highly protected
same,cytotoxicity of islet-derived CD8+ T cells of treated mice,[5]; NRP-A7-pulsed RMA-SKd targets,"less cytotoxic to NRP-A7-pulsed, RMA-SKd targets than those derived from NRP- or control peptide-treated mice"
same,insulin 15-23-reactive CD8+ T cells in islets of treated mice,"[5]; b198: high concentration NRP-A7, low and high concentrations NRP-V7",significantly increased percentages of insulin 15-23 tetramer-reactive CD8^+ T-cells
same,"effect on NRP-A7-reactive T cells in islets, high concentration",[5]; high concentration,nearly complete deletion of all NRP-A7-reactive cells
same,"effect on NRP-A7-reactive T cells in islets, low concentration",[5]; low concentration,fostered the accumulation of low avidity NRP-A7-reactive T-cells in islets
same,effect of treatment on high/low avidity NRP-reactive CD8+ T cell subpopulations (conclusion),[5]; repeated injections,blunted the avidity maturation of the NRP-A7-reactive CD8^+ T cell population; also recorded: promoted the expansion of the low avidity T cell subpopulation; also recorded: selectively eliminated those NRP-A7-reactive CD8^+ T cells expressing high affinity TCRs for NRP-A7
same,NRP/NRP-A7 tetramer-reactive CD8+ T cells in islets of treated mice,"[5]; repeated injections, low dosage according to b141",greater numbers of NRP-A7 tetramer-reactive cells than control peptide-treated mice
same,effect on 8.3-CD8+ T cells,8.3-CD8+ T cells,induced the deletion of 8.3-CD8^+ T cells
"LYLVCGERG [INS, insulin-derived peptide recognized by islet-associated T cells from young NOD mice]",tetramer staining of CTL clone G9C8,[6],stained
